Laboratory results: the CheMixHub viscosity set
Values joined by “and” are separate entries in the source; they are usually repeats but may differ in a detail not shown here. Identical values can stand only once. ± gives the uncertainty stated by the source. One block for each compound: values may come before it.

Compound: CC(C)CCO
viscosity (293.15 K, 101.33 kPa): 4.579 ± 0.046 mPa·s | viscosity (298.1 K, 101 kPa): 3.841 ± 0.079 mPa·s and 3.798 ± 0.0052 mPa·s | viscosity (298.15 K, 100 kPa): 3.74 ± 0.062 mPa·s | viscosity (298.15 K, 101.3 kPa): 3.48 ± 0.095 mPa·s | viscosity (298.15 K, 101.33 kPa): 3.581 ± 0.043 mPa·s | viscosity (303.15 K, 101.3 kPa): 2.95 ± 0.081 mPa·s and 2.958 ± 0.034 mPa·s and 2.96 ± 0.036 mPa·s | viscosity (308.15 K, 100 kPa): 2.654 ± 0.059 mPa·s | viscosity (308.15 K, 101 kPa): 2.805 ± 0.044 mPa·s and 2.61 ± 0.06 mPa·s and 2.881 ± 0.033 mPa·s | viscosity (308.15 K, 101.3 kPa): 2.53 ± 0.069 mPa·s | viscosity (308.15 K, 101.33 kPa): 2.59 ± 0.032 mPa·s | viscosity (313.15 K, 101.3 kPa): 2.21 ± 0.061 mPa·s | viscosity (313.15 K, 101.33 kPa): 2.537 ± 0.025 mPa·s and 2.391 ± 0.028 mPa·s | viscosity (318.15 K, 101 kPa): 2.05 ± 0.04 mPa·s and 2.23 ± 0.026 mPa·s | viscosity (323.15 K, 101 kPa): 1.867 ± 0.036 mPa·s and 1.974 ± 0.023 mPa·s | viscosity (323.15 K, 101.33 kPa): 1.827 ± 0.022 mPa·s

Compound: CC(CC(C)(C)C)CP(=O)(O)CC(C)CC(C)(C)C (stereo unspecified)
viscosity (298.15 K, 101 kPa): 120 ± 2.2 mPa·s

viscosity (303.15 K, 101.3 kPa): 2.145 ± 0.016 mPa·s
Compound: CCCCCCCCCCOC(C)=O

viscosity (298.15 K, 101 kPa): 37.35 ± 0.49 mPa·s | viscosity (303.15 K, 101 kPa): 25.29 ± 0.38 mPa·s
Compound: C[C@@H]1CCCC[C@H]1O

Compound: Cc1cccc(Cl)c1
viscosity (303.15 K, 100 kPa): 0.743 ± 0.05 mPa·s | viscosity (303.15 K, 101 kPa): 0.751 ± 0.013 mPa·s and 0.743 ± 0.02 mPa·s | viscosity (308.15 K, 100 kPa): 0.701 ± 0.05 mPa·s | viscosity (308.15 K, 101 kPa): 0.701 ± 0.02 mPa·s | viscosity (313.15 K, 100 kPa): 0.663 ± 0.05 mPa·s | viscosity (313.15 K, 101 kPa): 0.652 ± 0.011 mPa·s and 0.663 ± 0.019 mPa·s | viscosity (318.15 K, 100 kPa): 0.624 ± 0.05 mPa·s | viscosity (318.15 K, 101 kPa): 0.624 ± 0.018 mPa·s

viscosity (298 K, 101 kPa): 0.635 ± 0.014 mPa·s | viscosity (303 K, 101 kPa): 0.589 ± 0.013 mPa·s | viscosity (308 K, 101 kPa): 0.548 ± 0.012 mPa·s
Compound: FC(F)(F)C(F)(F)C(F)(F)C(F)(F)C(F)(F)C(F)(F)F

Compound: Oc1ccc(Cl)cc1
viscosity (308.15 K, 101.33 kPa): 8.228 ± 0.13 mPa·s
